Experimental data from paper PMC8468039, “Development of New Meridianin/Leucettine-Derived Hybrid Small Molecules as Nanomolar Multi-Kinase Inhibitors with Antitumor Activity” (Biomedicines, 2021).

Assays:
LCK = biological target: T1, LCK (Homo sapiens, UniProt P06239); test: In vitro kinase inhibition assay (HotSpot, Reaction Biology); type: biochemical; details: single dose of 10 µM; 10 µM ATP as printed; read-out: Percent Inhibition, LCK
T1 construct: purchased Reaction Biology Corp
Method: (§1) The in vitro kinase inhibition assay was carried out by Reaction Biology Corp. (Reaction Biology Corp., Chester, PA, USA) Kinase HotSpot^SM service (http://www.reactionbiology.com, accessed on 15 January 2021), following the previously reported methods. (For details, see Supplementary Material).
(§2) As mentioned in the introduction, to get insights about the kinase inhibition profile of the hybrid small molecule 5a, an in vitro screening over a panel of 14 cancer-related kinases was carried out. Accordingly, 10 µM concentrations of compound 5a were used in a kinase inhibition assay over various kinase groups and families in the presence of 10 µM ATP using HotSpotSM technology. To get a comprehensive picture of the inhibitory activities of the tested compound (5a) against the kinase panel, data are illustrated in Table 1. […] Compound 5a was also able to suppress the kinase activity of the epidermal growth factor receptor (EGFR), platelet-derived growth factor receptor-alpha (PDGFRα), and cyclin-dependent kinase 2 (CDK2) with modest inhibition values of 26.99 ± 0.9, 24.0 ± 0.4, and 20.1 ± 0.1%, respectively. […] Several studies have confirmed direct relationships between the most affected kinases (FMS, LCK, LYN, and DAPK1) and different human disorders including cancer.
(§3) 5. Protocol of Kinase assay
(§4) Kinases inhibitory activities were assessed by the HotSpot assay platform, which contained specific kinase/substrate pairs along with required cofactors. Base reaction buffer: 20 mM Hepes (pH 7.5), 10 mM MgCl2, 1 mM EGTA, 0.02% Brij35, 0.02 mg/ml BSA, 0.1 mM Na3VO4, 2 mM DTT, 1% DMSO. Testing compounds were dissolved in 100% DMSO to specific concentration. The serial dilution was conducted by Integra Viaflo Assist in DMSO. The reaction mixture containing the examined compound and 33P-ATP was incubated at room temperature for 2h and radioactivity was detected by filter-binding method. Kinase activity data were expressed as the percent remaining kinase activity in test samples compared to vehicle (dimethyl sulfoxide) reactions. IC50 values and curve fits were obtained using Prism (GraphPad Software).
(§5) 6. Biology raw data for IC50 determination
(§6) Paper ID Cpd ID NSC Number

DAPK1 = biological target: T2, DAPK1 (Homo sapiens, UniProt P53355); test: as above; type: biochemical; details: single dose of 10 µM; read-out: Percent Inhibition, DAPK1
T2 construct: purchased Reaction Biology Corp
T2 sequence (P53355 whole entry): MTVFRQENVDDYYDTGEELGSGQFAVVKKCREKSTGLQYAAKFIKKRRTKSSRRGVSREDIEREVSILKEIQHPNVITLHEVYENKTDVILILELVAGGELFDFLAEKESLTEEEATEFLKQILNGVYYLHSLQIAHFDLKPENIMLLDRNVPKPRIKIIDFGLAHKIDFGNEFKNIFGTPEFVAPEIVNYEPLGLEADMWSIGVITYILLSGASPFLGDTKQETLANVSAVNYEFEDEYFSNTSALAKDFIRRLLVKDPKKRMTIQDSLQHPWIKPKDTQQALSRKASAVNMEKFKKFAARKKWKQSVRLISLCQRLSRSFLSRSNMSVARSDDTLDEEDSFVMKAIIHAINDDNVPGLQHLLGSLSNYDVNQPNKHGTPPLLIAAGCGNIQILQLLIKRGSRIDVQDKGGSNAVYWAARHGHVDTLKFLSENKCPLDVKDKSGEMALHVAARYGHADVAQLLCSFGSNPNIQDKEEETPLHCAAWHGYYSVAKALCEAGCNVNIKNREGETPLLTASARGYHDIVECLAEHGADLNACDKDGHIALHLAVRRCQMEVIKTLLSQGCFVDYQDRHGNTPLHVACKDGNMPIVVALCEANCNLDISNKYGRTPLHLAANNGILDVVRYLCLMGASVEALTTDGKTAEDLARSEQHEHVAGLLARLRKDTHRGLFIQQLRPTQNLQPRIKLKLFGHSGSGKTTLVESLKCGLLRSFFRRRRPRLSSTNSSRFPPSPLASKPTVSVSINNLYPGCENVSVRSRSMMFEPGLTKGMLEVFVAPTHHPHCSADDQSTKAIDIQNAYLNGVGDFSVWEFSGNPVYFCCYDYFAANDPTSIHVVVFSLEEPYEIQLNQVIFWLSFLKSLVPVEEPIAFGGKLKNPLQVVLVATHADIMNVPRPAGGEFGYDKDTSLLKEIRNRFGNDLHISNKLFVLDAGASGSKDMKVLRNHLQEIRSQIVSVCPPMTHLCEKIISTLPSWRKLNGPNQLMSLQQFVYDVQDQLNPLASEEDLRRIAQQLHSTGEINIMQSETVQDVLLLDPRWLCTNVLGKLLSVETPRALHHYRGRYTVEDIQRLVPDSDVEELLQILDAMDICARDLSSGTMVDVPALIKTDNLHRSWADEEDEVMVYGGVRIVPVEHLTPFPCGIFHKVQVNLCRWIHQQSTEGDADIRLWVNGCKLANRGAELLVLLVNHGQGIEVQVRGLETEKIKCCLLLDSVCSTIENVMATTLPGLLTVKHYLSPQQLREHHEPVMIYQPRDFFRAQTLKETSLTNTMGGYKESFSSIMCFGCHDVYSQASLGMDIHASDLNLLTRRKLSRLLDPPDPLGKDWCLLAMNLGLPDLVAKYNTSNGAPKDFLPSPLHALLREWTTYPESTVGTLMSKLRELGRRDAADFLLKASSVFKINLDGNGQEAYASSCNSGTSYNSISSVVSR
Method: as §1, §2, §3, §4, §5, §6

LYN = biological target: T3, LYN (Homo sapiens, UniProt P07948); test: as above; type: biochemical; details: single dose of 10 µM; 10 µM ATP as printed; read-out: Percent Inhibition, LYN
T3 construct: purchased Reaction Biology Corp
T3 sequence (P07948 whole entry): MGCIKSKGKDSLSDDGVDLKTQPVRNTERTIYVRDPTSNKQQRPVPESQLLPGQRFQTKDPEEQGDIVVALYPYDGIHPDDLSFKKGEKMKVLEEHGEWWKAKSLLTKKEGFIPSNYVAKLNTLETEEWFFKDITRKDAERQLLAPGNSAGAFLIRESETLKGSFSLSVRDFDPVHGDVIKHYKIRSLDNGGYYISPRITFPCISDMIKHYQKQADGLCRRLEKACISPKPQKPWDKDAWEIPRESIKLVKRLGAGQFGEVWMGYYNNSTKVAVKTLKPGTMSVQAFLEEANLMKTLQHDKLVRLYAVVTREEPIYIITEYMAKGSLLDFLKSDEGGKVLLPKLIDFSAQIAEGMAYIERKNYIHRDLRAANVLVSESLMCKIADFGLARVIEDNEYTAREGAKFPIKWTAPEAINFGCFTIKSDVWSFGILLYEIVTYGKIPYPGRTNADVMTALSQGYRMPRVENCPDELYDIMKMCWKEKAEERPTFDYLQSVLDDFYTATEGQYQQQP
Method: as §1, §2, §3, §4, §5, §6

FMS = biological target: T4, FMS (Homo sapiens, UniProt P07333); test: as above; type: biochemical; details: single dose of 10 µM; 10 µM ATP as printed; read-out: Percent Inhibition, FMS
T4 construct: purchased Reaction Biology Corp
T4 sequence (P07333 20-972): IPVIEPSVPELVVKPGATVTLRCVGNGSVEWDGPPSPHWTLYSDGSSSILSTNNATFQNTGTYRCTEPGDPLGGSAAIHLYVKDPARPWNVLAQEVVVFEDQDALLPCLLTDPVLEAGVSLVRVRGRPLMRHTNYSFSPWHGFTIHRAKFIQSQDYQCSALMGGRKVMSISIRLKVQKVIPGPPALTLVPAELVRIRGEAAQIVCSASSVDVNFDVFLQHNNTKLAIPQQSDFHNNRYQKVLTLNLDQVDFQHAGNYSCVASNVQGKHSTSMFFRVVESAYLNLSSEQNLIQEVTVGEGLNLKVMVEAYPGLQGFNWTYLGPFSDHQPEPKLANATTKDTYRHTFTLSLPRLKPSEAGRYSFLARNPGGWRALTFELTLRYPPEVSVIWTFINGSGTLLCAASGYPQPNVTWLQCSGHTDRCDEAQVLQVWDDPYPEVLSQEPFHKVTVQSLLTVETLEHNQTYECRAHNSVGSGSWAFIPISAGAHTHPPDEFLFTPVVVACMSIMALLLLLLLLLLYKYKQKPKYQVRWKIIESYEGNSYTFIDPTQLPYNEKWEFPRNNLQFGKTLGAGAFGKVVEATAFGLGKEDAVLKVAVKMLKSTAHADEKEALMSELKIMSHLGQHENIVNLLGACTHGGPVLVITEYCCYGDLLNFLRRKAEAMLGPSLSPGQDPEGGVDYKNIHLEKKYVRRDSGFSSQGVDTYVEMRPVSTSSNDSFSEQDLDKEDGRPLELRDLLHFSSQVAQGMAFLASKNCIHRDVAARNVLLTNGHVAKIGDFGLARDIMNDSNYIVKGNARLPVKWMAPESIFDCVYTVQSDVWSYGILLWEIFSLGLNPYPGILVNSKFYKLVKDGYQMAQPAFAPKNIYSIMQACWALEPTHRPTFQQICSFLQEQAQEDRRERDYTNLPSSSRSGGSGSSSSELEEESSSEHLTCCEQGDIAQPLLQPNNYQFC
Method: as §1, §2, §3, §4

786-0 = test: NCI growth inhibition (SRB) assay; type: cell-based; details: Homo sapiens, 786-0, Renal Cancer, single dose 10 µM, 48 h, read-out: Percent Growth Inhibition (GI)
Method: (§7) The antitumor assay was performed according to the protocol of the Drug Evaluation Branch, NCI, Bethesda. A 48 h drug exposure protocol was adopted, and sulforhodamine B (SRB) assay was utilized to assess the cell growth and viability, as reported earlier.
(§8) The inhibition results of tumor cell growth by the newly synthesized compounds (5a–5g) are described in Table 4. The reported measurements have been performed at the NIH National Cancer Institute, USA by a standardized assay including a panel of 60 different tumor cell lines (Supplementary Data). The following cancer cell types were included in these assays: Leukemia, non-small cell lung cancer, colon cancer, CNS cancer, melanoma, ovarian cancer, renal cancer, prostate, and breast cancer. […] Additionally, the 3,4-dimethoxy substituted compound (5b) also suffered poor activity against the cancer cell lines.

MOLT-4 = test: NCI growth inhibition (SRB) assay; type: cell-based; details: Homo sapiens, MOLT-4, Leukemia, single dose 10 µM, 48 h, read-out: Percent Growth Inhibition (GI)
Method: as §7, §8

NCI-H522 = test: NCI growth inhibition (SRB) assay; type: cell-based; details: Homo sapiens, NCI-H522, Non-Small Cell Lung Cancer, single dose 10 µM, 48 h, read-out: Percent Growth Inhibition (GI)
Method: as §7, §8

KM12 = test: NCI growth inhibition (SRB) assay; type: cell-based; details: Homo sapiens, KM12, Colon Cancer, single dose 10 µM, 48 h, read-out: Percent Growth Inhibition (GI)
Method: as §7, §8

UACC-62 = test: NCI growth inhibition (SRB) assay; type: cell-based; details: Homo sapiens, UACC-62, Melanoma, single dose 10 µM, 48 h, read-out: Percent Growth Inhibition (GI)
Method: as §7, §8

HT29 = test: NCI growth inhibition (SRB) assay; type: cell-based; details: Homo sapiens, HT-29, HT29, Colon Cancer, single dose 10 µM, 48 h, read-out: Percent Growth Inhibition (GI)
Method: as §7, §8

CCRF-CEM = test: NCI growth inhibition (SRB) assay; type: cell-based; details: Homo sapiens, Leukemia, single dose 10 µM, 48 h, read-out: Percent Growth Inhibition (GI)
Method: as §7, §8

MCF7 = test: NCI growth inhibition (SRB) assay; type: cell-based; details: Homo sapiens, MCF7, Breast Cancer, single dose 10 µM, 48 h, read-out: Percent Growth Inhibition (GI)
Method: as §7, §8

HCT-116 = test: NCI growth inhibition (SRB) assay; type: cell-based; details: Homo sapiens, HCT-116, Colon Cancer, single dose 10 µM, 48 h, read-out: Percent Growth Inhibition (GI)
Method: as §7, §8

K-562 = test: NCI growth inhibition (SRB) assay; type: cell-based; details: Homo sapiens, K562, K-562, Leukemia, single dose 10 µM, 48 h, read-out: Percent Growth Inhibition (GI)
Method: as §7, §8

PC-3 = test: NCI growth inhibition (SRB) assay; type: cell-based; details: Homo sapiens, PC-3, Prostate Cancer, single dose 10 µM, 48 h, read-out: Percent Growth Inhibition (GI)
Method: as §7, §8

A498 = test: NCI growth inhibition (SRB) assay; type: cell-based; details: Homo sapiens, A498, Renal Cancer, single dose 10 µM, 48 h, read-out: Percent Growth Inhibition (GI)
Method: as §7, §8

COLO 205 = test: NCI growth inhibition (SRB) assay; type: cell-based; details: Homo sapiens, COLO 205, Colon Cancer, single dose 10 µM, 48 h, read-out: Percent Growth Inhibition (GI)
Method: as §7, §8

IGROV1 = test: NCI growth inhibition (SRB) assay; type: cell-based; details: Homo sapiens, IGROV-1, IGROV1, Ovarian Cancer, single dose 10 µM, 48 h, read-out: Percent Growth Inhibition (GI)
Method: as §7, §8

RXF 393 = test: NCI growth inhibition (SRB) assay; type: cell-based; details: Homo sapiens, RXF 393, Renal Cancer, single dose 10 µM, 48 h, read-out: Percent Growth Inhibition (GI)
Method: as §7, §8

T1 sequence (P06239 whole entry): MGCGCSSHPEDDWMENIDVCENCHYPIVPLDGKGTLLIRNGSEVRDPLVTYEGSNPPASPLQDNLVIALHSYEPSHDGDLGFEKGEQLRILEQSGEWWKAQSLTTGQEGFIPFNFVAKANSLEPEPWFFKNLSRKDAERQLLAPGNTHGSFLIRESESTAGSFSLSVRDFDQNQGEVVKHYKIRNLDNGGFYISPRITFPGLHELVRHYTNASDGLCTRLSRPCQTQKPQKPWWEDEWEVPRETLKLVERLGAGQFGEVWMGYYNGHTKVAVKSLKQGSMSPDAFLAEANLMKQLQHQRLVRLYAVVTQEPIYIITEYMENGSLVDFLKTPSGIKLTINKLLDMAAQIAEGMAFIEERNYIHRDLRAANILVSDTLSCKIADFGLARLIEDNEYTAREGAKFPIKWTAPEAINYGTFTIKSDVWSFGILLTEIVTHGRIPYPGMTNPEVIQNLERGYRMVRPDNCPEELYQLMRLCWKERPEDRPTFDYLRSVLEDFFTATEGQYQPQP

Row | Compound | inhibition at 10 µM (LCK) [%] | inhibition at 10 µM (DAPK1) [%] | inhibition at 10 µM (LYN) [%] | inhibition at 10 µM (FMS) [%] | inhibition at 10 µM (786-0) [%] | inhibition at 10 µM (MOLT-4) [%] | inhibition at 10 µM (NCI-H522) [%] | inhibition at 10 µM (KM12) [%] | inhibition at 10 µM (UACC-62) [%] | inhibition at 10 µM (HT29) [%] | inhibition at 10 µM (CCRF-CEM) [%] | inhibition at 10 µM (MCF7) [%] | inhibition at 10 µM (HCT-116) [%] | inhibition at 10 µM (K-562) [%] | inhibition at 10 µM (PC-3) [%] | inhibition at 10 µM (A498) [%] | inhibition at 10 µM (COLO 205) [%] | inhibition at 10 µM (IGROV1) [%] | inhibition at 10 µM (RXF 393) [%]
1 | COc1ccc(Oc2nc(Nc3ccc(N4CCOCC4)cc3)ncc2NC(=O)Cc2cc(OC)cc(OC)c2)cc1 [5e, 2-(3,5-Dimethoxyphenyl)-N-(4-(4-methoxyphenoxy)-2-((4-morpholinophenyl)amino)pyrimidin-5-yl)acetamide] | 39.5 ± 0.4 | 47.1 ± 0.7 | 7.9 ± 0.4 | 75.5 ± 0.8 | 0.75 | -0.81 | 8.4 | 1.32 | 1.34 | -8.47 | -4.73 | 18.9 | 0.34 | 2.31 | 8.05 | -6.85 | -22.4 | -9.02 | -8.16
2 | COc1ccc(Oc2nc(Nc3ccc(N4CCOCC4)cc3)ncc2NC(=O)c2ccnc([N+](=O)[O-])c2)cc1 [5f, N-(4-(4-Methoxyphenoxy)-2-((4-morpholinophenyl)amino)pyrimidin-5-yl)-2-nitroisonicotinamide] | 72.6 ± 0.6 | 65.5 ± 1.4 | 34.1 ± 2.2 | 65.4 ± 0.1 | 5.78 | -5.98 | 9.77 | -1.85 | 21.4 | -8.86 | 16.7 | 12.5 | -0.19 | 10.9 | 13.8 | 6.39 | -14.6 | 1.91 | -0.36
3 | COc1ccc(Oc2nc(Nc3ccc(N4CCOCC4)cc3)ncc2NC(=O)c2ccc(OC)c(OC)c2)cc1 [5b, 3,4-Dimethoxy-N-(4-(4-methoxyphenoxy)-2-((4-morpholinophenyl)amino)pyrimidin-5-yl)benzamide] | 62.3 ± 0.8 | 65 ± 1.2 | 36.9 ± 4.5 | 44.1 ± 0.2 | 17.6 | 19.9 | -3.5 | -4.34 | 0.1 | -2.93 | 5.37 | 4.24 | 6.01 | 8.76 | 0.75 | -5.56 | -2.21 | 3.6 | 20.4
4 | COc1ccc(Oc2nc(Nc3ccc(N4CCOCC4)cc3)ncc2NC(=O)c2ccc3c(c2)OCO3)cc1 [5a, N-(4-(4-Methoxyphenoxy)-2-((4-morpholinophenyl)amino)pyrimidin-5-yl)benzo[d][1,3]dioxole-5-carboxamide] | 81.4 ± 0.6 | 55 ± 1.1 | 75.2 | 82.5 ± 0.6 | 25.3 | 31.1 | 22.7 | 12.7 | 7.38 | 28.3 | 14.5 | 8.51 | 14.6 | 23.4 | 11.7 | 22.4 | 1.75 | 5.92 | 50.5
